From US10287301B2 (Achillion Pharmaceuticals, Inc., priority 2015, dated 2019)

What follows are compounds tested against Human Factor D (Homo sapiens (Human), UniProt P00746) (assay: Human Factor D Assay). Settings: Human Factor D, Table 3; read-out: IC50.
Assay type: biochemical
How it was run: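 Factor D (from human serum) 80 nM final + cpd, 5 min RT, 50 mM Tris/1M NaCl pH 7.5; add Z-L-Lys-SBzl 100 μM and DTNB 100 μM final. IC50 by nonlinear fit of rates vs [cpd].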

Chain of Human Factor D (P00746 26-253): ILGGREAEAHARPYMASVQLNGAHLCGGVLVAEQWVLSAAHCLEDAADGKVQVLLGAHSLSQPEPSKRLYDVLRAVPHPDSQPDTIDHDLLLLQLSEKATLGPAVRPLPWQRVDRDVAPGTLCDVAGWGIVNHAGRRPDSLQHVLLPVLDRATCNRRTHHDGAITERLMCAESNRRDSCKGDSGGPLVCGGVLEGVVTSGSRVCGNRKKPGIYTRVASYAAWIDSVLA

**Q.** How did the IC50 turn out when CC(=O)c1nn(CC(=O)N2CC[C@H]2C(=O)Nc2cccc(Br)n2)c2ccc(-c3cnc(C)nc3)cc12 [Compound 542, (S)-1-(2-(3-Acetyl-5-(2-methylpyrimidin-5-yl)-1H-indazol-1-yl)acetyl)-N-(6-bromopyridin-2-yl)azetidine-2-carboxamide] was run?
**A.** < 1000 nM

**Q.** How did the IC50 turn out when COc1ccc(-c2ccc3c(c2)c(C(C)=O)nn3CC(=O)N2CC[C@H]2C(=O)Nc2cccc(C)n2)cn1 [Compound 546, (S)-1-(2-(3-Acetyl-5-(6-methoxypyridin-3-yl)-1H-indazol-1-yl)acetyl)-N-(6-methylpyridin-2-yl)azetidine-2-carboxamide] was run?
**A.** > 10000 nM

**Q.** Which IC50 does the source give for CC(=O)c1nn(CC(=O)N2CC[C@H]2C(=O)Nc2cccc(C)n2)c2ccc(-c3cccc(C#N)c3)cc12 [Compound 547, (S)-1-(2-(3-Acetyl-5-(3-cyanophenyl)-1H-indazol-1-yl)acetyl)-N-(6-methylpyridin-2-yl)azetidine-2-carboxamide] here?
**A.** > 10000 nM

**Q.** With CC(=O)c1nn(CC(=O)N2CC[C@H]2C(=O)Nc2cccc(C)n2)c2ccc(-c3cccnc3)cc12 [Compound 548, (S)-1-(2-(3-Acetyl-5-(pyridin-3-yl)-1H-indazol-1-yl)acetyl)-N-(6-methylpyridin-2-yl)azetidine-2-carboxamide] as the compound, how does the IC50 read?
**A.** > 10000 nM

**Q.** Which IC50 does the source give for CC(=O)c1nn(CC(=O)N2CC[C@H]2C(=O)Nc2cccc(C)n2)c2ccc(-c3ccc(F)nc3)cc12 [Compound 549, (S)-1-(2-(3-Acetyl-5-(6-fluoropyridin-3-yl)-1H-indazol-1-yl)acetyl)-N-(6-methylpyridin-2-yl)azetidine-2-carboxamide] here?
**A.** > 10000 nM

**Q.** How did the IC50 turn out when CC(=O)c1nn(CC(=O)N2[C@@H]3C[C@@H]3C[C@H]2C(=O)NCC(F)=C(C)C2CC2)c2ccc(-c3cnc(C)nc3)cc12 [Compound 551, (1R,3S,5R)-2-(2-(3-Acetyl-5-(2-methylpyrimidin-5-yl)-1H-indazol-1-yl)acetyl)-N-(3-cyclopropyl-2-fluorobut-2-en-1-yl)-2-azabicyclo[3.1.0]hexane-3-carboxamide] was run?
**A.** < 1000 nM

**Q.** How did the IC50 turn out when CC(=O)c1nn(CC(=O)N2C[C@H](F)C[C@H]2C(=O)Nc2cccc(Br)n2)c2ccc(-c3cnc(Oc4ccncc4)nc3)cc12 [Compound 554, (2S,4R)-1-(2-(3-aAetyl-5-(2-(pyridin-4-yloxy)pyrimidin-5-yl)-1H-indazol-1-yl)acetyl)-N-(6-bromopyridin-2-yl)-4-fluoropyrrolidine-2-carboxamide] was run?
**A.** < 1000 nM

**Q.** CC(=O)c1nn(CC(=O)N2C[C@H](F)C[C@H]2C(=O)Nc2cccc(Br)n2)c2ccc(-c3cnc(COC(=O)N(C)C)nc3)cc12 [Compound 555, (5-(3-Acetyl-1-(2-((2S,4R)-2-((6-bromopyridin-2-yl)carbamoyl)-4-fluoropyrrolidin-1-yl)-2-oxoethyl)-1H-indazol-5-yl)pyrimidin-2-yl)methyl dimethylcarbamate] was tested. Which IC50 did it give?
**A.** < 1000 nM

**Q.** With CC(=O)c1nn(CC(=O)N2C[C@H](F)C[C@H]2C(=O)Nc2cccc(Br)n2)c2ccc(-c3cnc(NS(C)(=O)=O)nc3)cc12 [Compound 556, (2S,4R)-1-(2-(3-Acetyl-5-(2-(methylsulfonamido)pyrimidin-5-yl)-1H-indazol-1-yl)acetyl)-N-(6-bromopyridin-2-yl)-4-fluoropyrrolidine-2-carboxamide] as the compound, how does the IC50 read?
**A.** < 1000 nM

**Q.** With CC(=O)c1nn(CC(=O)N2[C@@H]3C[C@@H]3C[C@H]2C(=O)NC/C(F)=C(\C)c2ccccc2)c2ccc(-c3cnc(C)nc3)cc12 [Compound 557, (1R,3S,5R)-2-(2-(3-Acetyl-5-(2-methylpyrimidin-5-yl)-1H-indazol-1-yl)acetyl)-N—((Z)-2-fluoro-3-phenylbut-2-en-1-yl)-2-azabicyclo[3.1.0]hexane-3-carboxamide] as the compound, how does the IC50 read?
**A.** < 1000 nM

Same assay, conditions: Table 3; Human Factor D 80 nM, substrate Z-L-Lys-SBzl; read-out: IC50 (Stars)

**Q.** How did the IC50 turn out when CC(=O)c1nn(CC(=O)N2[C@@H]3C[C@@H]3C[C@H]2C(=O)NC/C(F)=C(\C)c2cccc(Cl)c2)c2ccc(-c3cnc(C)nc3)cc12 [Compound 516, (1R,3S,5R)-2-(2-(3-Acetyl-5-(2-methylpyrimidin-5-yl)-1H-indazol-1-yl)acetyl)-N—((Z)-3-(3-chlorophenyl)-2-fluorobut-2-en-1-yl)-2-azabicyclo[3.1.0]hexane-3-carboxamide] was run?
**A.** < 1000 nM

**Q.** CC(=O)c1nn(CC(=O)N2C[C@H](F)C[C@H]2C(=O)Nc2nc(Br)c(F)cc2C)c2ccc(-c3cnc(C)nc3)cc12 [Compound 520, (2S,4R)-1-(2-(3-Acetyl-5-(2-methylpyrimidin-5-yl)-1H-indazol-1-yl)acetyl)-N-(6-bromo-5-fluoro-3-methylpyridin-2-yl)-4-fluoropyrrolidine-2-carboxamide] was tested. Which IC50 did it give?
**A.** < 1000 nM

**Q.** CC(=O)c1nn(CC(=O)N2C[C@H](F)C[C@H]2C(=O)Nc2cccc(Br)n2)c2ccc(-c3cnc(S(C)(=O)=O)nc3)cc12 [Compound 521, (2S,4R)-1-(2-(3-Acetyl-5-(2-(methylsulfonyl)pyrimidin-5-yl)-1H-indazol-1-yl)acetyl)-N-(6-bromopyridin-2-yl)-4-fluoropyrrolidine-2-carboxamide] was tested. Which IC50 did it give?
**A.** < 1000 nM

**Q.** How did the IC50 turn out when CC(=O)c1nn(CC(=O)N2C[C@H](F)C[C@H]2C(=O)Nc2cccc(Br)n2)c2ccc(-c3cnc(-n4cccn4)nc3)cc12 [Compound 522, (2S,4R)-1-(2-(5-(2-(1H-Pyrazol-1-yl)pyrimidin-5-yl)-3-acetyl-1H-indazol-1-yl)acetyl)-N-(6-bromopyridin-2-yl)-4-fluoropyrrolidine-2-carboxamide] was run?
**A.** < 1000 nM

**Q.** Which IC50 does the source give for CC(=O)c1nn(CC(=O)N2[C@@H]3C[C@@H]3C[C@H]2C(=O)NC/C(F)=C(/C)c2ccccc2Cl)c2ccc(-c3cnc(C)nc3)cc12 [Compound 523] here?
**A.** < 1000 nM

**Q.** For CC(=O)c1nn(CC(=O)N2[C@@H]3C[C@@H]3C[C@H]2C(=O)NC/C(F)=C(\C)c2ccccc2Cl)c2ccc(-c3cnc(C)nc3)cc12 [Compound 528], which IC50 is on record?
**A.** < 1000 nM

**Q.** Which IC50 does the source give for COC(=O)Cc1ncc(-c2ccc3c(c2)c(C(C)=O)nn3CC(=O)N2C[C@H](F)C[C@H]2C(=O)Nc2cccc(Br)n2)cn1 [Compound 529, methyl 2-(5-(3-acetyl-1-(2-((2S,4R)-2-((6-bromopyridin-2-yl)carbamoyl)-4-fluoropyrrolidin-1-yl)-2-oxoethyl)-1H-indazol-5-yl)pyrimidin-2-yl)acetate] here?
**A.** < 1000 nM

**Q.** With CC(=O)c1nn(CC(=O)N2[C@@H](C)CC[C@H]2C(=O)Nc2cccc(Br)n2)c2ccc(-c3cnc(C)nc3)cc12 [Compound 530, (2S,5S)-1-(2-(3-Acetyl-5-(2-methylpyrimidin-5-yl)-1H-indazol-1-yl)acetyl)-N-(6-bromopyridin-2-yl)-5-methylpyrrolidine-2-carboxamide] as the compound, how does the IC50 read?
**A.** < 1000 nM

**Q.** CSc1ncc(-c2ccc3c(c2)c(C(C)=O)nn3CC(=O)N2C[C@H](F)C[C@H]2C(=O)Nc2cccc(Br)n2)cn1 [Compound 531, (2S,4R)-1-(2-(3-Acetyl-5-(2-(methylthio)pyrimidin-5-yl)-1H-indazol-1-yl)acetyl)-N-(6-bromopyridin-2-yl)-4-fluoropyrrolidine-2-carboxamide] was tested. Which IC50 did it give?
**A.** < 1000 nM

**Q.** Which IC50 does the source give for CC(=O)c1nn(CC(=O)N2C[C@H](F)C[C@H]2C(=O)Nc2cccc(Br)n2)c2ccc(-c3cnc(CC(N)=O)nc3)cc12 [Compound 532, (2S,4R)-1-(2-(3-Acetyl-5-(2-(2-amino-2-oxoethyl)pyrimidin-5-yl)-1H-indazol-1-yl)acetyl)-N-(6-bromopyridin-2-yl)-4-fluoropyrrolidine-2-carboxamide] here?
**A.** < 1000 nM

**Q.** With CC(=O)c1nn(CC(=O)N2C[C@H](F)C[C@H]2C(=O)Nc2cccc(Br)n2)c2ccc(-c3cnc(CC(=O)O)nc3)cc12 [Compound 533, 2-(5-(3-Acetyl-1-(2-((2S,4R)-2-((6-bromopyridin-2-yl)carbamoyl)-4-fluoropyrrolidin-1-yl)-2-oxoethyl)-1H-indazol-5-yl)pyrimidin-2-yl)acetic acid] as the compound, how does the IC50 read?
**A.** < 1000 nM

**Q.** With CCc1ccc(Br)nc1NC(=O)[C@@H]1C[C@@H](F)CN1C(=O)Cn1nc(C(C)=O)c2cc(-c3cnc(C)nc3)ccc21 [Compound 534, (2S,4R)-1-(2-(3-Acetyl-5-(2-methylpyrimidin-5-yl)-1H-indazol-1-yl)acetyl)-N-(6-bromo-3-ethylpyridin-2-yl)-4-fluoropyrrolidine-2-carboxamide] as the compound, how does the IC50 read?
**A.** < 1000 nM

**Q.** For Cc1cccc(NC(=O)[C@@H]2[C@H]3CC[C@H](C3)N2C(=O)Cn2cc(C(N)=O)c3cc(-c4cnc5c(c4)CCC5)ccc32)n1 [Compound 535, 5-(6,7-Dihydro-5H-cyclopenta[b]pyridin-3-yl)-1-(2-((1R,3S,4S)-3-(6-methylpyridin-2-ylcarbamoyl)-2-azabicyclo[2.2.1]heptan-2-yl)-2-oxoethyl)-1H-indole-3-carboxamide], which IC50 is on record?
**A.** > 10000 nM

**Q.** With Cc1cccc(NC(=O)[C@@H]2[C@H]3CC[C@H](C3)N2C(=O)Cn2cc(C(N)=O)c3cc(-c4ccc5c(c4)CC5)ccc32)n1 [Compound 536, 5-(1,2-Dihydrocyclobutabenzen-4-yl)-1-(2-((1R,3S,4S)-3-(6-methylpyridin-2-ylcarbamoyl)-2-azabicyclo[2.2.1]heptan-2-yl)-2-oxoethyl)-1H-indole-3-carboxamide] as the compound, how does the IC50 read?
**A.** > 10000 nM

**Q.** How did the IC50 turn out when CCOC(=O)Cc1ncc(-c2ccc3c(c2)c(C(C)=O)nn3CC(=O)N2C[C@H](F)C[C@H]2C(=O)Nc2cccc(Br)n2)cn1 [Compound 537, Ethyl 2-(5-(3-acetyl-1-(2-((2S,4R)-2-((6-bromopyridin-2-yl)carbamoyl)-4-fluoropyrrolidin-1-yl)-2-oxoethyl)-1H-indazol-5-yl)pyrimidin-2-yl)acetate] was run?
**A.** < 1000 nM

**Q.** With CC(=O)c1nn(CC(=O)N2C[C@H](F)C[C@H]2C(=O)Nc2nc(Br)ccc2C2CC2)c2ccc(-c3cnc(C)nc3)cc12 [Compound 538, (2S,4R)-1-(2-(3-Acetyl-5-(2-methylpyrimidin-5-yl)-1H-indazol-1-yl)acetyl)-N-(6-bromo-3-cyclopropylpyridin-2-yl)-4-fluoropyrrolidine-2-carboxamide] as the compound, how does the IC50 read?
**A.** < 1000 nM

**Q.** Which IC50 does the source give for CCOC(=O)Cc1ncc(-c2ccc3c(c2)c(C(C)=O)nn3CC(=O)N2C[C@H](F)C[C@H]2C(=O)Nc2ccc(F)c(Br)n2)cn1 [Compound 539, ethyl 2-(5-(3-Acetyl-1-(2-((2S,4R)-2-((6-bromo-5-fluoropyridin-2-yl)carbamoyl)-4-fluoropyrrolidin-1-yl)-2-oxoethyl)-1H-indazol-5-yl)pyrimidin-2-yl)acetate] here?
**A.** < 1000 nM
